# Assay results from ChEMBL document CHEMBL3885861, “Open TG-GATES”.
# Organism: Rattus norvegicus
# Test: Open TG-GATES - Regimen: Daily Repeat
# Type: toxicity, organism-based, Sprague-Dawley
# Parameters: regimen Daily Repeat, gender Male, age 6 weeks
# Settings: in vivo, po, route gavage; for APTT / Bas / Eos / Fbg / Hb / Ht / Lym / MCH / MCHC / MCV / Mono / Neu / PT / Plat / RBC / Ret / WBC: tissue Blood; for KIDNEY_L / KIDNEY_R / KIDNEY_TOTAL: tissue Kidney; for LIVER: tissue Liver; for ALP / ALT / AST / BUN / CRE / DBIL / GLC / K / Na / PL / RALB / TBIL / TC / TG / TP / gamma-GTP: tissue Plasma
# [1] = 75 mg/kg, 72 h, dose level Middle, time 3 day
# [2] = 75 mg/kg, […], dose level Middle, time 7 day
# [3] = 75 mg/kg, […], dose level Middle, time 14 day
# [4] = 75 mg/kg, […], dose level Middle, time 28 day
# [5] = 250 mg/kg, 72 h, dose level High, time 3 day
# [6] = 250 mg/kg, […], dose level High, time 7 day
# [7] = 250 mg/kg, […], dose level High, time 14 day
# [8] = 250 mg/kg, […], dose level High, time 28 day
structure (smiles),measurement,setting,value
CN1C(=O)CN=C(c2ccccc2)c2cc(Cl)ccc21 [DIAZEPAM],TERMINAL_BW,[1],244.2 g
same,APTT,[1],16.3 s
same,Bas,[1],0%
same,Eos,[1],1.2%
same,Fbg,[1],235.6 mg/dL
same,Hb,[1],13.7 g/dL
same,Ht,[1],41.3%
same,Lym,[1],77.4%
same,MCH,[1],21.3 pg
same,MCHC,[1],33.3%
same,MCV,[1],64.1 fL
same,Mono,[1],6%
same,Neu,[1],15.8%
same,PT,[1],11.6 s
same,Plat,[1],112.9 x10_4/uL
same,RBC,[1],644 x10_4/ul
same,Ret,[1],6.3%
same,WBC,[1],129.7 x10_2/uL
same,KIDNEY_L,[1],1.1 g
same,KIDNEY_R,[1],1 g
same,KIDNEY_TOTAL,[1],2.1 g
same,LIVER,[1],12.5 g
same,ALP,[1],782.4 IU/L
same,ALT,[1],33.2 IU/L
same,AST,[1],62.6 IU/L
same,BUN,[1],19 mg/dL
same,CRE,[1],0.6 mg/dL
same,DBIL,[1],0.008 mg/dL
same,GLC,[1],194.2 mg/dL
same,K,[1],5 meq/L
same,Na,[1],138.7 meq/L
same,PL,[1],164.2 mg/dL
same,RALB,[1],4.1 g/dL
same,TBIL,[1],0.4 mg/dL
same,TC,[1],90.8 mg/dL
same,TG,[1],99.2 mg/dL
same,TP,[1],6 g/dL
same,gamma-GTP,[1],0.8 IU/L
same,TERMINAL_BW,[2],272.1 g
same,TERMINAL_BW,[3],328 g
same,TERMINAL_BW,[4],403 g
same,APTT,[2],16.8 s
same,Bas,[2],0%
same,Eos,[2],1%
same,Fbg,[2],230.6 mg/dL
same,Hb,[2],14.3 g/dL
same,Ht,[2],43.5%
same,Lym,[2],77.8%
same,MCH,[2],21 pg
same,MCHC,[2],32.9%
same,MCV,[2],63.8 fL
same,Mono,[2],5.8%
same,Neu,[2],15.4%
same,PT,[2],11.4 s
same,Plat,[2],107.7 x10_4/uL
same,RBC,[2],682.8 x10_4/ul
same,Ret,[2],5.5%
same,WBC,[2],100.7 x10_2/uL
same,APTT,[3],16.7 s
same,Bas,[3],0%
same,Eos,[3],0.6%
same,Fbg,[3],228.6 mg/dL
same,Hb,[3],14.6 g/dL
same,Ht,[3],43.7%
same,Lym,[3],82.6%
same,MCH,[3],21.1 pg
same,MCHC,[3],33.4%
same,MCV,[3],63 fL
same,Mono,[3],3.8%
same,Neu,[3],12.8%
same,PT,[3],11.8 s
same,Plat,[3],111.6 x10_4/uL
same,RBC,[3],694.4 x10_4/ul
same,Ret,[3],4.9%
same,WBC,[3],142.4 x10_2/uL
same,APTT,[4],17.8 s
same,Bas,[4],0%
same,Eos,[4],1.2%
same,Fbg,[4],236.6 mg/dL
same,Hb,[4],15.2 g/dL
same,Ht,[4],45.7%
same,Lym,[4],80.4%
same,MCH,[4],19 pg
same,MCHC,[4],33.3%
same,MCV,[4],57 fL
same,Mono,[4],3.6%
same,Neu,[4],14.4%
same,PT,[4],12 s
same,Plat,[4],106.3 x10_4/uL
same,RBC,[4],802.8 x10_4/ul
same,Ret,[4],2.6%
same,WBC,[4],121 x10_2/uL
same,KIDNEY_L,[2],1.2 g
same,KIDNEY_R,[2],1.2 g
same,KIDNEY_TOTAL,[2],2.3 g
same,KIDNEY_L,[3],1.3 g
same,KIDNEY_R,[3],1.4 g
same,KIDNEY_TOTAL,[3],2.7 g
same,KIDNEY_L,[4],1.4 g
same,KIDNEY_R,[4],1.5 g
same,KIDNEY_TOTAL,[4],2.9 g
same,LIVER,[2],13.9 g
same,LIVER,[3],15.5 g
same,LIVER,[4],17.7 g
same,ALP,[2],755 IU/L
same,ALT,[2],36.8 IU/L
same,AST,[2],57.8 IU/L
same,BUN,[2],16.4 mg/dL
same,CRE,[2],0.6 mg/dL
same,DBIL,[2],0.01 mg/dL
same,GLC,[2],199 mg/dL
same,K,[2],4.5 meq/L
same,Na,[2],138.9 meq/L
same,PL,[2],155.2 mg/dL
same,RALB,[2],4.2 g/dL
same,TBIL,[2],0.3 mg/dL
same,TC,[2],81.8 mg/dL
same,TG,[2],86.4 mg/dL
same,TP,[2],6.2 g/dL
same,gamma-GTP,[2],1.2 IU/L
same,ALP,[3],627.6 IU/L
same,ALT,[3],32.8 IU/L
same,AST,[3],59.2 IU/L
same,BUN,[3],16 mg/dL
same,CRE,[3],0.6 mg/dL
same,DBIL,[3],0.006 mg/dL
same,GLC,[3],194.8 mg/dL
same,K,[3],4.4 meq/L
same,Na,[3],141.1 meq/L
same,PL,[3],144.8 mg/dL
same,RALB,[3],4 g/dL
same,TBIL,[3],0.4 mg/dL
same,TC,[3],74.6 mg/dL
same,TG,[3],87.4 mg/dL
same,TP,[3],6.1 g/dL
same,gamma-GTP,[3],1 IU/L
same,ALP,[4],410.4 IU/L
same,ALT,[4],32.2 IU/L
same,AST,[4],56.8 IU/L
same,BUN,[4],20.2 mg/dL
same,CRE,[4],0.6 mg/dL
same,DBIL,[4],0.012 mg/dL
same,GLC,[4],192.4 mg/dL
same,K,[4],4.2 meq/L
same,Na,[4],139.9 meq/L
same,PL,[4],151.4 mg/dL
same,RALB,[4],4.1 g/dL
same,TBIL,[4],0.3 mg/dL
same,TC,[4],74 mg/dL
same,TG,[4],136 mg/dL
same,TP,[4],6.7 g/dL
same,gamma-GTP,[4],0.4 IU/L
same,TERMINAL_BW,[5],237.9 g
same,APTT,[5],16.2 s
same,Bas,[5],0%
same,Eos,[5],1%
same,Fbg,[5],230.6 mg/dL
same,Hb,[5],14 g/dL
same,Ht,[5],42%
same,Lym,[5],78.8%
same,MCH,[5],21.5 pg
same,MCHC,[5],33.3%
same,MCV,[5],64.8 fL
same,Mono,[5],6.2%
same,Neu,[5],14.2%
same,PT,[5],11.6 s
same,Plat,[5],103.3 x10_4/uL
same,RBC,[5],648.4 x10_4/ul
same,Ret,[5],5.6%
same,WBC,[5],126.1 x10_2/uL
same,KIDNEY_L,[5],1.1 g
same,KIDNEY_R,[5],1.1 g
same,KIDNEY_TOTAL,[5],2.1 g
same,LIVER,[5],12.6 g
same,ALP,[5],891.8 IU/L
same,ALT,[5],47.4 IU/L
same,AST,[5],68.8 IU/L
same,BUN,[5],17.2 mg/dL
same,CRE,[5],0.6 mg/dL
same,DBIL,[5],0.024 mg/dL
same,GLC,[5],201.4 mg/dL
same,K,[5],4.8 meq/L
same,Na,[5],138.9 meq/L
same,PL,[5],173.6 mg/dL
same,RALB,[5],3.8 g/dL
same,TBIL,[5],0.3 mg/dL
same,TC,[5],113.4 mg/dL
same,TG,[5],59.8 mg/dL
same,TP,[5],5.9 g/dL
same,gamma-GTP,[5],1.8 IU/L
same,TERMINAL_BW,[6],268.4 g
same,TERMINAL_BW,[7],309.4 g
same,TERMINAL_BW,[8],402.6 g
same,APTT,[6],17.2 s
same,Bas,[6],0%
same,Eos,[6],1.2%
same,Fbg,[6],211.8 mg/dL
same,Hb,[6],13.7 g/dL
same,Ht,[6],40.8%
same,Lym,[6],76.6%
same,MCH,[6],21.6 pg
same,MCHC,[6],33.5%
same,MCV,[6],64.6 fL
same,Mono,[6],6%
same,Neu,[6],16.6%
same,PT,[6],11.6 s
same,Plat,[6],128 x10_4/uL
same,RBC,[6],633.8 x10_4/ul
same,Ret,[6],5.9%
same,WBC,[6],144 x10_2/uL
same,APTT,[7],18.5 s
same,Bas,[7],0%
same,Eos,[7],0.8%
same,Fbg,[7],245.8 mg/dL
same,Hb,[7],14.6 g/dL
same,Ht,[7],43.8%
same,Lym,[7],79%
same,MCH,[7],20.6 pg
same,MCHC,[7],33.4%
same,MCV,[7],61.8 fL
same,Mono,[7],4.6%
same,Neu,[7],15.6%
same,PT,[7],11.9 s
same,Plat,[7],106.7 x10_4/uL
same,RBC,[7],709.4 x10_4/ul
same,Ret,[7],4.3%
same,WBC,[7],144 x10_2/uL
same,APTT,[8],20.2 s
same,Bas,[8],0%
same,Eos,[8],1%
same,Fbg,[8],252 mg/dL
same,Hb,[8],15.4 g/dL
same,Ht,[8],45.8%
same,Lym,[8],81.4%
same,MCH,[8],19.7 pg
same,MCHC,[8],33.6%
same,MCV,[8],58.5 fL
same,Mono,[8],4.2%
same,Neu,[8],13.4%
same,PT,[8],12.2 s
same,Plat,[8],109.3 x10_4/uL
same,RBC,[8],782.2 x10_4/ul
same,Ret,[8],3%
same,WBC,[8],179.4 x10_2/uL
same,KIDNEY_L,[6],1.2 g
same,KIDNEY_R,[6],1.2 g
same,KIDNEY_TOTAL,[6],2.4 g
same,KIDNEY_L,[7],1.3 g
same,KIDNEY_R,[7],1.4 g
same,KIDNEY_TOTAL,[7],2.7 g
same,KIDNEY_L,[8],1.6 g
same,KIDNEY_R,[8],1.6 g
same,KIDNEY_TOTAL,[8],3.2 g
same,LIVER,[6],14.5 g
same,LIVER,[7],16.6 g
same,LIVER,[8],19.7 g
same,ALP,[6],732.8 IU/L
same,ALT,[6],35.4 IU/L
same,AST,[6],64.8 IU/L
same,BUN,[6],17.2 mg/dL
same,CRE,[6],0.6 mg/dL
same,DBIL,[6],0.008 mg/dL
same,GLC,[6],194.4 mg/dL
same,K,[6],4.5 meq/L
same,Na,[6],139.1 meq/L
same,PL,[6],133.4 mg/dL
same,RALB,[6],3.9 g/dL
same,TBIL,[6],0.3 mg/dL
same,TC,[6],78 mg/dL
same,TG,[6],35.4 mg/dL
same,TP,[6],6.1 g/dL
same,gamma-GTP,[6],1 IU/L
same,ALP,[7],735.2 IU/L
same,ALT,[7],37.8 IU/L
same,AST,[7],54.2 IU/L
same,BUN,[7],17.6 mg/dL
same,CRE,[7],0.6 mg/dL
same,DBIL,[7],0.01 mg/dL
same,GLC,[7],193.6 mg/dL
same,K,[7],4.6 meq/L
same,Na,[7],142 meq/L
same,PL,[7],145.4 mg/dL
same,RALB,[7],4.1 g/dL
same,TBIL,[7],0.2 mg/dL
same,TC,[7],78.8 mg/dL
same,TG,[7],48 mg/dL
same,TP,[7],6.4 g/dL
same,gamma-GTP,[7],1.6 IU/L
same,ALP,[8],448.2 IU/L
same,ALT,[8],35 IU/L
same,AST,[8],53.6 IU/L
same,BUN,[8],19 mg/dL
same,CRE,[8],0.6 mg/dL
same,DBIL,[8],0.012 mg/dL
same,GLC,[8],195.4 mg/dL
same,K,[8],4.1 meq/L
same,Na,[8],140.5 meq/L
same,PL,[8],135.4 mg/dL
same,RALB,[8],4.3 g/dL
same,TBIL,[8],0.3 mg/dL
same,TC,[8],73.4 mg/dL
same,TG,[8],48 mg/dL
same,TP,[8],6.8 g/dL
same,gamma-GTP,[8],0.8 IU/L
